Tests used:
Type in all cases: binding, human
PELI1/2 = assay: Biotinylated peptide pull-down from HeLa nuclear extracts, Western blot for PELI1/2; settings: biotinylated peptide on streptavidin beads, 4 h at 4°C, SDS–PAGE and Western blot
Method: (§1) Streptavidin-coupled Dynabeads MyOne Streptavidin T1 (Invitrogen) were washed four times with PBS pH 7.4. To conjugate the Dynabeads with biotinylated peptides (21st Century Biochemicals, Inc.), 30 μl of beads were incubated with 0.2 μmol of each peptide with end-over-end rotation for 90 min at RT. Conjugated Dynabeads were then washed once with PBS and 3 × 2 min with 0.1% BSA in PBS. HeLa nuclear extracts (Ipracell) were diluted 1:1 in 2X Dilution buffer (100 mM NaCl, 10 mM NaF, 0.2 mM EDTA, 0.4% Igepal CA-630, 20 mM HEPES-KOH pH 7.4) supplemented with complete protease inhibitor cocktail (Roche), and cleared by centrifugation at 16,000g for 15 min at 4°C. Purified GST-PELI2-FHA recombinant protein was also diluted in 2X Dilution buffer containing protease inhibitors. MDC1-[p]TQXF peptide-conjugated Dynabeads were incubated either with clarified HeLa nuclear extracts for 4 h or with purified GST-PELI2-FHA for 5 h. H2AX-[p]S139 peptide-conjugated Dynabeads were incubated with clarified HeLa nuclear extracts for 4 h. In all the cases, incubation was performed with end-over-end rotation at 4°C. Beads were washed three times with Peptide pull-down buffer (50 mM NaCl, 50 mM KCl, 5 mM NaF, 0.1 mM EDTA, 0.2% Igepal CA-630, 10% glycerol, 20 mM HEPES-KOH pH 7.4) supplemented with complete protease inhibitor cocktail (Roche). Then, they were either resuspended in Peptide pull-down buffer and brought to the Functional Genomics Center of the University of Zurich (FGCZ) for further mass spectrometry, or elution was carried out in 2X SDS sample buffer (100 mM DTT, PLD001; Geneaid) for SDS–PAGE. […]
(§2) Adjusted volume (intensity) of Western blot bands was calculated with Image Lab (Bio-Rad, Image Lab Software Version 6.1, Bio-Rad Laboratories, Inc.) for every biotinylated p-peptide from the MDC1-[p]TQXF peptide pull-down from HeLa nuclear extracts, as a way of analyzing the binding affinity of either RNF8 or PELI1/2 for each pTQXF cluster. […]

RNF8 = assay: Biotinylated peptide pull-down from HeLa nuclear extracts, Western blot for RNF8; settings: biotinylated peptide on streptavidin beads, 4 h at 4°C, SDS–PAGE and Western blot
Method: as §1, with “h.” for “h. In all the cases, incubation was performed with end-over-end rotation at 4°C. Beads were washed three times with Peptide pull-down buffer (50 mM NaCl, 50 mM KCl, 5 mM NaF, 0.1 mM EDTA, 0.2% Igepal CA-630, 10% glycerol, 20 mM HEPES-KOH pH 7.4) supplemented with complete protease inhibitor cocktail (Roche). Then, they were either resuspended in Peptide pull-down buffer and brought to the Functional Genomics Center of the University of Zurich (FGCZ) for further mass spectrometry, or elution was carried out in 2X SDS sample buffer (100 mM DTT, PLD001; Geneaid) for SDS–PAGE.”
as §2

GST-PELI2-FHA = assay: Biotinylated peptide pull-down of purified recombinant GST-PELI2-FHA; settings: biotinylated peptide on streptavidin beads, 5 h at 4°C, SDS–PAGE, protein stain
Method: For recombinant human PELI2-FHA expression in bacteria and further purification, the GST-tagged PELI2-FHA construct was transformed into E. coli BL21(DE3)pLysS Competent Cells (Promega). 100 μl of the transformation mixture were used to inoculate a 500 ml flask containing 100 ml of Luria–Bertani broth (LB) supplemented with carbenicillin (100 μg/ml) and chloramphenicol (34 μg/ml), and inoculated culture was incubated overnight at 27°C without shaking. On the next day, the overnight culture was grown at 37°C in an orbital shaking incubator until the optical density at 600 nm reached 0.6–0.8, moment when culture was removed from the incubator and rapidly cooled on ice to 25°C. Recombinant protein expression was induced by the addition of 0.4 mM isopropyl β-D-1-thiogalactopyranoside (IPTG) and incubation of the culture for a further 4 h at 25°C shaking at 220 rpm was performed. Cells were then harvested by centrifugation, and the resulting pellet was stored at −80°C until required. […] Protein concentration was measured after every purification step. […]

MDC1 = assay: Biotinylated H2AX-pS139 peptide pull-down from HeLa nuclear extracts, Western blot for MDC1; settings: biotinylated peptide on streptavidin beads, 4 h at 4°C
Method: as §1, with “(Roche).” for “(Roche). Then, they were either resuspended in Peptide pull-down buffer and brought to the Functional Genomics Center of the University of Zurich (FGCZ) for further mass spectrometry, or elution was carried out in 2X SDS sample buffer (100 mM DTT, PLD001; Geneaid) for SDS–PAGE.”

Substance | PELI1/2 pulled down by the peptide (in words) (PELI1/2) | RNF8 pulled down by the peptide (in words) (RNF8) | purified GST-PELI2-FHA pulled down by the peptide (in words) (GST-PELI2-FHA) | MDC1 pulled down by the peptide (in words) (MDC1)
Biotin-SGS-DSEDLDLQA[p]TQCFLE-NH2 [biotinylated pT699, synthetic biotinylated MDC1 TQXF phosphopeptide for pull-downs] | highest quantities | highest quantities | – | –
Biotin-SGS-LDEPWEVLA[p]TQPFCL-NH2 [biotinylated pT752, synthetic biotinylated peptide, human MDC1 residues 743–757, phospho-threonine at T752] | – | large quantities | specifically pulled down | –
Biotin-SGS-AVQSMEDEP[p]TQAFML-NH2 [biotinylated pT719, synthetic biotinylated MDC1 TQXF phosphopeptide for pull-downs] | specifically pulled down | – | specifically pulled down | –
Biotin-SGS-TVGPKAPSGGKKATQA[p]SQEY-OH [biotinylated H2AX-pS139, biotinylated γH2AX phosphopeptide for pull-downs] | – | – | – | efficiently pulled down
Biotin-SGS-CLRESEDSE[p]TQPFDT-NH2 [biotinylated pT765, synthetic biotinylated MDC1 TQXF phosphopeptide for pull-downs] | more PELI1/2 than RNF8 | – | – | –

From article PMC11884936, “MDC1 mediates Pellino recruitment to sites of DNA double-strand breaks” (Life Science Alliance, 2025)
